Consider 27 compounds from patent US20080234384A1, “BIARYL AND BIHETEROARYL COMPOUNDS USEFUL IN TREATING IRON DISORDERS” (XENON PHARMACEUTICALS INC., priority 2007, published 2008).

Data set [1] addresses T1, DMT1 (Homo sapiens, UniProt P49281).
T1 sequence (P49281 1-568): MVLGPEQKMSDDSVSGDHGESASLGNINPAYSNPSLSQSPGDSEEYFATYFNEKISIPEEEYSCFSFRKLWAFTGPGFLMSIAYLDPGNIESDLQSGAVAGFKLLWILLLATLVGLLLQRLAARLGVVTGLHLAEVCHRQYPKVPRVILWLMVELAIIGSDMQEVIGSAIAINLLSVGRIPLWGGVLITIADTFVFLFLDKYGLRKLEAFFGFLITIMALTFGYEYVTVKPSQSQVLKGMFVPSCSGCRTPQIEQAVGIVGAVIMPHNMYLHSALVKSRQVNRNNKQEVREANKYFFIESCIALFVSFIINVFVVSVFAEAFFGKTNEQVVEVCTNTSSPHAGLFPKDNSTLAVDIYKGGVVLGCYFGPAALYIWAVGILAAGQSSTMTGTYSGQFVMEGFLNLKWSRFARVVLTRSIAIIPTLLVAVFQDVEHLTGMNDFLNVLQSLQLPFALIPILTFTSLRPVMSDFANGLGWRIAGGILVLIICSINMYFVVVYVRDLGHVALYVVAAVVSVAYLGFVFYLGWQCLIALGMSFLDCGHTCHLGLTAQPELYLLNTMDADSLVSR
The experiment in a line: DMT1 Activity Assay (In Vitro Assay). The conditions noted are these: read-out: IC50 Activity Level. The format is cell-based. The source says: In particular, identification of the compounds of the invention ability to modulate, preferably to inhibit, DMT1 activity, can be assessed using a variety of in vitro and in vivo assays, for measuring uptake of reduced iron (Fe^2+). One such protocol involves the screening of chemical agents for ability to modulate the activity of DMT1 thereby identifying it as a modulating agent. The in vitro activity of DMT1 can be measured in cell based assays by either directly measuring iron flux (using a radioactively labelled iron ^55Fe) or by measuring the fluorescence of a cell permeable iron fluorophore such as calcein. Stable cell lines overexpressing DMT1 are exposed to ^55Fe or loaded with calcein and then compound is applied. […] Alternatively, in another format electrophysiological techniques can be used to measure the current or iron or other metals traversing the cell membrane with DMT1 in a Xenopus oocyte or other cell based system (Gunshin et al., Nature, 1997, 31; 388(6641):482-8).
This example discloses various in vitro assay for testing and profiling test agents against DMT1 stably expressed in cells of either an endogenous or recombinant origin. These assays can use stable cell lines overexpressing DMT1 or intestinal cells and intestinal tissue expressing endogenous DMT1. DMT1 function could also be assessed in other cell types that express DMT1. Of greatest relevance would be the erythrocytes (e.g. K562 cells) or hepatocytes (e.g. […]).
DMT1 function can be assessed in a number of ways, including monitoring fluorescence changes of an iron fluorophore (e.g. calcein), monitoring uptake of radiolabelled iron (55Fe or ^59Fe) (Picard et al., J. Biol. Chem., 2000, 275(46):35738-45 and Wetli et al., Chem. Biol. 2006 September; 13(9):965-72), or by assessing the current or transport of iron and other metals into the cells or tissues using standard electrophysiological techniques (Gunshin et al., Nature, 1997, 388(6641):482-8.).
Variations of these assays involve alterations of incubation times, the iron status of the cells and tissues (which may be modulated by chemical chelators or by harvesting from iron deficient animals), the metal cation detected and the pH of the reaction can generally be made by conventional techniques known to those skilled in the art.

In general, melting point refers to the temperature of the solid-liquid transition. By IC50 is commonly meant the midpoint of a concentration-inhibition curve.

Structures can show the parent of a compound that is named as a salt.

`N=C(N)SCc1ccccc1Oc1ccc(Cl)cc1CSC(=N)N` (as salt: hydrobromid) [Example 2.16, 2-[2-({[amino(imino)methyl]thio}methyl)-4-chlorophenoxy]benzyl imidothiocarbamate dihydrobromide] returned a melting point of over 220 °C.

With `N=C(N)SCc1ccccc1C(=O)c1ccccc1CSC(=N)N` (as salt: hydrobromid) [Example 2.25, 2-(6-(amidinothiomethyl)phenyl)carbonyl-1-(amidinothiomethyl)benzene dihydrobromide], the melting point is 239 to 240 °C (dec.).

`N=C(N)SCc1cccc(CSC(=N)N)c1-c1c(CSC(=N)N)cccc1CSC(=N)N` (as salt: hydrobromid) [Example 2.23, biphenyl-2,2′-6,6′-tetrayltetrakis(methylene)tetracarbamimidothioate tetrahydrobromide] yielded a melting point of 233 to 235 °C.

The compound `NC(N)=NC(=O)c1ccccc1Sc1ccccc1C(=O)N=C(N)N` [Example 4, 2,2′-thiobis(N-(diaminomethylene)benzamide)] showed a melting point of over 220 °C.

With `N=C(N)SCc1ccccc1C(=O)c1cc(F)ccc1CSC(=N)N` (as salt: hydrobromid) [Example 2.27, 2-(6-(amidinothiomethyl)phenyl)carbonyl-1-(amidinothiomethyl)-4-fluorobenzene dihydrobromide], the melting point was over 250 °C.

The compound `N=C(N)SCc1cc(F)ccc1Oc1ccc(Cl)cc1CSC(=N)N` (as salt: hydrobromid) [Example 2.11, 2-[2-(2-carbamimidoylsulfanylmethyl-4-chlorophenoxy)-5-fluorobenzyl]isothiourea dihydrobromide] gave a melting point of over 230 °C.

Turning to `N=C(N)SCc1cc(F)ccc1Oc1cccc(Cl)c1CSC(=N)N` (as salt: hydrobromid) [Example 2.10, 2-[2-(2-carbamimidoylsulfanylmethyl-3-chlorophenoxy)-5-fluorobenzyl]isothiourea dihydrobromide], the melting point lay in the range of 204 to 206 °C.

`N=C(N)SCc1cc([N+](=O)[O-])ccc1Oc1cc(Cl)ccc1CSC(=N)N` (as salt: hydrobromid) [Example 2.19, 2-[2-({[amino(imino)methyl]thio}methyl)-5-chlorophenoxy]-5-nitrobenzyl imidothiocarbamate dihydrobromide] returned a melting point of over 220 °C.

Compound `N=C(N)SCc1ccccc1Oc1cccc(Cl)c1CSC(=N)N` (as salt: hydrobromid) [Example 2.17, 2-[2-({[amino(imino)methyl]thio}methyl)-3-chlorophenoxy]benzyl imidothiocarbamate dihydrobromide] yielded a melting point of 150 to 152 °C.

Regarding `N=C(N)SCc1ccccc1Oc1ccc(F)cc1CSC(=N)N` (as salt: hydrobromid) [Example 2.21, 2-[2-({[amino(imino)methyl]thio}methyl)-4-fluorophenoxy]benzyl imidothiocarbamate dihydrobromide], the melting point is over 220 °C.

For the compound `N=C(N)SCc1ccccc1Oc1cc(Cl)ccc1CSC(=N)N` (as salt: hydrobromid) [Example 2.18, 2-[2-({[amino(imino)methyl]thio}methyl)-5-chlorophenoxy]benzyl imidothiocarbamate dihydrobromide], the melting point was over 220 °C.

In turn, `N=C(N)SCc1ccccc1C(=O)c1cc(Cl)ccc1CSC(=N)N` (as salt: hydrobromid) [Example 2.28, 2-(6-(amidinothiomethyl)phenyl)carbonyl-1-(amidinothiomethyl)-4-chlorobenzene dihydrobromide dihydrobromide] registered a melting point of over 250 °C.

With `N=C(N)SCc1ccccc1C(=O)c1ccc(Cl)cc1CSC(=N)N` (as salt: hydrobromid) [Example 2.29, 2-(6-(amidinothiomethyl)phenyl)carbonyl-1-(amidinothiomethyl)-5-chlorobenzene dihydrobromide], the melting point was over 250 °C.

`N=C(N)SCc1ccc(Cl)cc1Oc1cc([N+](=O)[O-])ccc1CSC(=N)N` (as salt: hydrobromid) [Example 2.9, 2-[2-({[amino(imino)methyl]thio}methyl)-5-chlorophenoxy]-4-nitrobenzyl imidothiocarbamate dihydrobromide]: the melting point is over 220 °C.

`COC(=O)c1cccc(CSC(=N)N)c1-c1c(CSC(=N)N)cccc1C(=O)OC` (as salt: hydrobromid) [Example 2.24, dimethyl 6,6′-bis(carbamimidoylthiomethyl)biphenyl-2,2′-dicarboxylate dihydrobromide] had a melting point of 222 to 225 °C.

In turn, `N=C(N)SCc1ccccc1C(=O)c1ccc(F)cc1CSC(=N)N` (as salt: hydrobromid) [Example 2.26, 2-(6-(amidinothiomethyl)phenyl)carbonyl-1-(amidinothiomethyl)-5-fluorobenzene dihydrobromide] came in with a melting point of over 250 °C.

Take `N=C(N)SCc1cc([N+](=O)[O-])ccc1Oc1cc(Cl)ccc1CSC(=N)N` [Example 2.19, 2-[2-({[amino(imino)methyl]thio}methyl)-5-chlorophenoxy]-5-nitrobenzyl imidothiocarbamate dihydrobromide]: in data set [1], the half-inhibitory concentration (IC50) is at least 1000 nM.

`N=C(N)SCc1cc(F)ccc1Oc1ccc([N+](=O)[O-])cc1CSC(=N)N` (as salt: hydrobromid) [Example 2.14, 2-[2-({[amino(imino)methyl]thio}methyl)-4-fluorophenoxy]-5-nitrobenzyl imidothiocarbamate dihydrobromide] returned a melting point of over 220 °C.

`CS(=O)(=O)c1ccc(CSC(=N)N)c(Sc2ccc(F)cc2CSC(=N)N)c1` [Example 2.7, 2-{[2-({[amino(imino)methyl]thio}methyl)-4-fluorophenyl]thio}-4-(methylsulfonyl)benzyl imidothiocarbamate dihydrochloride]: the IC50 in data set [1] is at least 1000 nM.

Regarding `N=C(N)NCCc1ccccc1Sc1ccccc1CCNC(=N)N` [Example 5, (4-methylbenzenesulfonate)], in data set [1], the IC50 was at least 1000 nM.

Take `N=C(N)SCc1cc(F)ccc1Oc1cccc(Cl)c1CSC(=N)N` [Example 2.10, 2-[2-(2-carbamimidoylsulfanylmethyl-3-chlorophenoxy)-5-fluorobenzyl]isothiourea dihydrobromide]: the IC50 in data set [1] is at least 1000 nM.

For the compound `CCNc1ccc(Sc2ccccc2CSC(=N)N)c(CSC(=N)N)c1` [Example 1.21, 2-[2-(2-carbamimidoylsulfanylmethylphenylsulfanyl)-5-ethylaminobenzyl]isothiourea trihydrobromide], in data set [1], the IC50 is at least 1000 nM.

As for `N=C(N)SCc1cc(F)ccc1Sc1sccc1CSC(=N)N` [Example 2.6, (2-{[2-({[amino(imino)methyl]thio}methyl)-4-fluorophenyl]thio}-3-thienyl)methyl imidothiocarbamate dihydrochloride], in data set [1], the IC50 is at least 1000 nM.

In the case of `N=C(NN)SCc1ccccc1Sc1ccccc1CSC(=N)NN` [Example 3, 2-(6-((aminoamidino)thiomethyl)phenyl)thio-1-((aminoamidino)thiomethyl)benzene dihydrobromide], the IC50 in data set [1] is at least 1000 nM.

Take `N=C(N)SCCc1cc(Cl)ccc1Sc1ccc(F)cc1CSC(=N)N` [Example 1.24, 2-[2-(2-carbamimidoylsulfanylethyl-4-chlorophenylsulfanyl)-5-fluorobenzyl]isothiourea dihydrobromide]: the concentration for half-maximal inhibition (IC50) in data set [1] fell in the range of 100 to 1000 nM.

For `N=C(N)CCc1ccccc1Sc1ccccc1CCC(=N)N` [Example 6, 2-(6-(2-amidinoethyl)phenyl)thio-1-(2-amidinoethyl)benzene], in data set [1], the IC50 is at least 1000 nM.

`CNC(=N)SCc1ccccc1Sc1ccccc1CSC(=N)NC` [Example 1.29, 2-[2-(2-methylcarbamimidoylsulfanylmethylphenylsulfanyl)benzyl]-methylisothiourea dihydrobromide]: the IC50 in data set [1] was at least 1000 nM.
